Test results: ChEMBL document CHEMBL5365439, “Development of a Selective Peptide κ-Opioid Receptor Antagonist by Late-Stage Functionalization with Cysteine Staples” (J Med Chem, 2023)
pEC50, pKi: −log10 of the molar value. Activity calls are given as the source filed them. The rule behind the calls is not given here. Numbered stars: 1 amine (or outer) side, 2 acyl side, 3 side chain; on linkers, the order of the positions; unused ones are H or OH. Bridge positions count the residues as written; N and C are the ends. Square brackets hold non-standard residues; d marks the D form. Peptide text beside a SMILES is read from it. CH2COCH2 = O=C(C[*:1])C[*:2]; CH2 = C([*:1])[*:2]; Mpa = O=C(O)CCS

Experiments:
[1] = target: T1, Kappa-type opioid receptor (Mus musculus, UniProt P33534); assay: Modulation of mouse KOR expressed in HEK293 cells assessed as inhibition of forskolin-induced adenylyl cyclase-dependent cAMP formation incubated for 30 mins by HTRF analysis; assay type: functional, cell-based
[2] = target: T1, Kappa-type opioid receptor; assay: Displacement of [3H]diprenorphine from mouse KOR expressed in HEK293 cell membrane assessed as inhibition constant incubated for 1 hr by radioligand displacement assay; assay type: cell membranes
[3] = target: Kappa-type opioid receptor (Mus musculus) (UniProt P33534); assay: Antagonist activity at mouse KOR expressed in HEK293 cells coexpressing EGFP/beta-arrestin2 fused NanoLuc assessed as reduction in beta-arrestin2 recruitment by measuring residual BRET signal at 10 uM preincubated with furimazine for 5 mins followed by peptide addition and measured for 30 mins by BRET assay relative to control; assay type: functional, cell-based; details: filed as antagonist
[4] = target: Delta-type opioid receptor (Mus musculus) (UniProt P32300); assay: Displacement of [3H]diprenorphine from mouse DOR expressed in HEK293 cell membrane at 10 uM incubated for 1 hr by radioligand displacement assay; assay type: cell membranes
[5] = target: Mu-type opioid receptor (Mus musculus) (UniProt P42866); assay: Displacement of [3H]diprenorphine from mouse MOR expressed in HEK293 cell membrane at 10 uM incubated for 1 hr by radioligand displacement assay; assay type: cell membranes
[6] = target: Kappa-type opioid receptor (Mus musculus) (UniProt P33534); assay: Antagonist activity at mouse KOR expressed in HEK293 cells coexpressing EGFP/beta-arrestin2 fused NanoLuc assessed as reduction in beta-arrestin2 recruitment at 10 uM preincubated with furimazine for 5 mins followed by peptide addition and measured for 30 mins by BRET assay; assay type: functional, cell-based
[7] = target: Kappa-type opioid receptor (Mus musculus) (UniProt P33534); assay: Antagonist activity at mouse KOR expressed in HEK293 cells assessed as forskolin-induced adenylyl cyclase-dependent cAMP formation at 10 uM incubated for 30 mins by HTRF analysis; assay type: functional, cell-based; details: filed as antagonist
[8] = Stability in human serum assessed as degradation at 3 mg/ml measured after 15 mins by RP-HPLC analysis; assay type: ADME, cell-free
[9] = target: T1, Kappa-type opioid receptor; assay: Partial agonist activity at mouse KOR expressed in HEK293 cells assessed as inhibition of forskolin-induced adenylyl cyclase-dependent cAMP formation incubated for 30 mins by HTRF analysis; assay type: functional, cell-based
Mus musculus [10] = assay: In vivo antagonist activity at KOR in CD-1 mouse model of U50,488 induced acute thermal nociception at 20 mg/kg, sc pretreated for 15 mins followed by U50,488 stimulation and measured after 30 to 60 mins by radiant heat tail flick assay; assay type: functional, organism-based; details: time 45-75 min
Mus musculus [11] = assay: In vivo antagonist activity at KOR in CD-1 mouse model assessed as reversal of U50,488 induced motor impairment by measuring increase in latency to fall at 20 mg/kg, sc pretreated for 15 mins followed by U50,488 stimulation and measured at 30 mins by rotarod assay; assay type: functional, organism-based; details: time 45.0 min
[12] = target: T1, Kappa-type opioid receptor; assay: Competitive antagonist activity at mouse KOR expressed in HEK293 cells at 0.3 to 10 uM preincubated for 30 mins followed by U50,488 addition and measured after 30 mins by fluorescence based schild regression analysis; assay type: functional, cell-based; details: read-out: pA2 (converted)
[13] = target: Kappa-type opioid receptor (Mus musculus) (UniProt P33534); assay: Antagonist activity at KOR in C57BL/6 mouse DRG neurons assessed as inhibition of U50,488 induced calcium mobilization at 1 to 10 uM preincubated with compound followed by U50,488 addition and measured for 12 mins by single cell calcium microfluorimetry analysis; assay type: functional, cell-based; details: DRG neuron, filed as antagonist, dose 1-10 µM
Mus musculus [14] = assay: In vivo antagonist activity at KOR in CD-1 mouse model of U50,488 induced acute thermal nociception at 10 mg/kg, sc pretreated for 24 hrs followed by U50,488 stimulation and measured after 30 to 60 mins by radiant heat tail flick assay; assay type: functional, organism-based; details: time lower 24.5 hrs, time upper […]

| Compound | pKi [2] | Activity [4] | Activity [5] | Activity ([6]; filed as antagonist) | Activity [7] | Stability [8] | Activity [6] | also measured |
| --- | --- | --- | --- | --- | --- | --- | --- | --- |
| CC(C)C[C@H](NC(=O)[C@H](CCCCN)NC(=O)[C@@H]1CCCN1C(=O)[C@H](CCCNC(=N)N)NC(=O)[C@@H]1CSCC(=O)CSCCC(=O)N[C@@H](Cc2ccc(O)cc2)C(=O)NCC(=O)NCC(=O)N[C@@H](Cc2ccccc2)C(=O)N[C@@H](CC(C)C)C(=O)N[C@@H](CCCNC(=N)N)C(=O)N[C@@H](CCCNC(=N)N)C(=O)N1)C(=O)N[C@@H](CCCCN)C(N)=O ([Mpa]YGGFLRRCRPKLK-NH2; linker 1-9 via CH2COCH2) | 7.49 | inactive | inactive |  |  |  |  | pEC50 [1]: 6.13; Activity [3]: 25% |
| CC[C@H](C)[C@@H]1NC(=O)[C@H](CCCNC(=N)N)NC(=O)[C@H](CCCNC(=N)N)NC(=O)[C@H](CC(C)C)NC(=O)[C@H](Cc2ccccc2)NC(=O)CNC(=O)CNC(=O)[C@H](Cc2ccc(O)cc2)NC(=O)CCSCSC[C@@H](C(=O)N[C@@H](CCCCN)C(=O)N[C@@H](CC(C)C)C(=O)N[C@@H](CCCCN)C(N)=O)NC(=O)[C@H](CCCNC(=N)N)NC1=O ([Mpa]YGGFLRRIRCKLK-NH2; linker 1-11 via CH2) |  | inactive | inactive |  |  |  |  |  |
| CC[C@H](C)[C@@H]1NC(=O)[C@H](CCCNC(=N)N)NC(=O)[C@H](CCCNC(=N)N)NC(=O)[C@H](CC(C)C)NC(=O)[C@H](Cc2ccccc2)NC(=O)CNC(=O)CNC(=O)[C@H](Cc2ccc(O)cc2)NC(=O)CCSCSC[C@@H](C(=O)N[C@@H](CCCCN)C(=O)N[C@@H](CC(C)C)C(=O)N[C@@H](CCCCN)C(=O)O)NC(=O)[C@H](CCCNC(=N)N)NC1=O ([Mpa]YGGFLRRIRCKLK-OH; linker 1-11 via CH2) |  | inactive | inactive | Active | Active | Unstable |  |  |
| CC(C)C[C@H](NC(=O)[C@H](CCCCN)NC(=O)[C@@H]1CCCN1C(=O)[C@H](CCCNC(=N)N)NC(=O)[C@@H]1CSCSCCC(=O)N[C@@H](Cc2ccc(O)cc2)C(=O)NCC(=O)NCC(=O)N[C@@H](Cc2ccccc2)C(=O)N[C@@H](CC(C)C)C(=O)N[C@@H](CCCNC(=N)N)C(=O)N[C@@H](CCCNC(=N)N)C(=O)N1)C(=O)N[C@@H](CCCCN)C(=O)O ([Mpa]YGGFLRRCRPKLK-OH; linker 1-9 via CH2) | 7.11 | inactive | inactive | Active | Active | Unstable |  |  |
| CC(C)C[C@H](NC(=O)[C@H](CCCCN)NC(=O)[C@@H]1CCCN1C(=O)[C@H](CCCNC(=N)N)NC(=O)[C@@H]1CSCC(=O)CSCCC(=O)N[C@@H](Cc2ccc(O)cc2)C(=O)NCC(=O)NCC(=O)N[C@@H](Cc2ccccc2)C(=O)N[C@@H](CC(C)C)C(=O)N[C@@H](CCCNC(=N)N)C(=O)N[C@@H](CCCNC(=N)N)C(=O)N1)C(=O)N[C@@H](CCCCN)C(=O)O ([Mpa]YGGFLRRCRPKLK-OH; linker 1-9 via CH2COCH2) | 7.04 | inactive | inactive | Active |  | Unstable |  | pEC50 [9]: 6.57 |
| CC(C)C[C@H](NC(=O)[C@H](CCCCN)NC(=O)[C@@H]1CCCN1C(=O)[C@H](CCCNC(=N)N)NC(=O)[C@@H]1CSCSCCC(=O)N[C@@H](Cc2ccc(O)cc2)C(=O)NCC(=O)NCC(=O)N[C@@H](Cc2ccccc2)C(=O)N[C@@H](CC(C)C)C(=O)N[C@@H](CCCNC(=N)N)C(=O)N[C@@H](CCCNC(=N)N)C(=O)N1)C(=O)N[C@@H](CCCCN)C(N)=O ([Mpa]YGGFLRRCRPKLK-NH2; linker 1-9 via CH2) | 8.17 | inactive | inactive |  | Active |  |  | Activity (Mus musculus [10]): Active; Activity [3]: 5%; Activity (Mus musculus [11]): Active; Kb [12]: 31.6 nM; Activity [13]: Active |
| Oc1ccc2c3c1O[C@H]1c4[nH]c5c(c4C[C@@]4(O)[C@@H](C2)N(CC2CC2)CC[C@]314)C[C@@]1(O)[C@H]2Cc3ccc(O)c4c3[C@@]1(CCN2CC1CC1)[C@H]5O4 |  |  |  |  |  |  |  | Activity (Mus musculus [14]): Active |
| CC[C@H](C)[C@@H]1NC(=O)[C@H](CCCNC(=N)N)NC(=O)[C@H](CCCNC(=N)N)NC(=O)[C@H](CC(C)C)NC(=O)[C@H](Cc2ccccc2)NC(=O)CNC(=O)CNC(=O)[C@H](Cc2ccc(O)cc2)NC(=O)CCSCC(=O)CSC[C@@H](C(=O)N[C@@H](CCCCN)C(=O)N[C@@H](CC(C)C)C(=O)N[C@@H](CCCCN)C(=O)O)NC(=O)[C@H](CCCNC(=N)N)NC1=O ([Mpa]YGGFLRRIRCKLK-OH; linker 1-11 via CH2COCH2) |  |  |  |  |  |  | inactive |  |
| CC[C@H](C)[C@H](NC(=O)[C@H](CCCN=C(N)N)NC(=O)[C@H](CCCN=C(N)N)NC(=O)[C@H](CC(C)C)NC(=O)[C@H](Cc1ccccc1)NC(=O)CNC(=O)CNC(=O)[C@@H](N)Cc1ccc(O)cc1)C(=O)N[C@@H](CCCN=C(N)N)C(=O)N1CCC[C@H]1C(=O)N[C@@H](CCCCN)C(=O)N[C@@H](CC(C)C)C(=O)N[C@@H](CCCCN)C(N)=O |  |  |  |  |  | Unstable | inactive |  |
| CC(C)C[C@H](NC(=O)[C@H](CCCCN)NC(=O)[C@@H]1CCCN1C(=O)[C@H](CCCNC(=N)N)NC(=O)[C@@H]1CSSCCC(=O)N[C@@H](Cc2ccc(O)cc2)C(=O)NCC(=O)NCC(=O)N[C@@H](Cc2ccccc2)C(=O)N[C@@H](CC(C)C)C(=O)N[C@@H](CCCNC(=N)N)C(=O)N[C@@H](CCCNC(=N)N)C(=O)N1)C(=O)N[C@@H](CCCCN)C(=O)O ([Mpa]YGGFLRRCRPKLK-OH; disulfide 1-9) |  |  |  |  |  |  | inactive |  |
